# Test results as given in patent publication US12304932B2, “PACAP stabilized peptide” (SENJU PHARMACEUTICAL CO., LTD., priority 2017, dated 2025).
# Square brackets hold non-standard residues; d marks the D form. Peptide text beside a SMILES is read from it. Ala(1H-tetrazol-5-yl) = N[C@@H](Cc1nnn[nH]1)C(=O)O
# Experiment: Peptide stability tests 2 and 3: Tris buffer pH 7.0, stored at 60° C., HPLC conditions 2
# Format: physicochemical
# Settings: Tris buffer pH 7.0, 60° C.; for survival rate after correction for water, 60° C., 1-week storage / survival rate after correction for water, 60° C., 2-week storage: 100 μM peptide; for survival rate after correction for water, 60° C., 2-week storage: 2 weeks
# Procedure: (§1) Peptides 1, 2 and 6 to 9 synthesized in Example 2 were weighed and dissolved in Tris buffer (pH 7.0) to prepare 1.0 mM peptide solutions. The solutions were filtered with a Chromatdisk (product of Merck Millipore, Millex-GV, 0.22 μm). Each filtrate was diluted to 100 μM with Tris buffer (pH 7.0) and dispensed into a tube (Protein LoBind Tube by Eppendorf Co.). The prepared peptide solutions were incubated for 1 week or 2 weeks in a 60° C. thermostatic bath to obtain stored samples. A simultaneously prepared sample among the peptide solutions that was not stored was used as a standard sample (initial sample). The standard sample and the stored samples were stored at −30° C. until sample analysis.
# Each stored sample was measured under the following HPLC analysis conditions 2, and the survival rate after correction for water for each peptide among the stored samples was calculated in the same manner as Example 3.
# Column: XSelect CSH C18 by Waters Co., 5 μm, 4.6×250 mm
# Guard column: XSelect CSH C18 by Waters. Co., 5 μm, 4.6×20 mm Guard Cartridge
# Detection wavelength: 220 nm
# Mobile phase A: 0.1% formic acid in water
# Mobile phase B: 0.1% formic acid in acetonitrile
# Measuring time: 20 minutes
# Measuring sample injection rate: 50 μL
# Column temperature: 40° C.
# Mobile phase delivery: The mixing ratio of mobile phase A and mobile phase B was varied as shown in Table 5 for linear concentration gradient control.
# as §1, with “Peptides 12 to 25, 27” for “Peptides 1, 2”, “and 28” for “and 6 to 9”, “for one” for “for 1”
# The survival rate after correction for water for each peptide among the stored samples was calculated in the same manner as Example 4, and the results are shown in Table 7.
# as §1, with “29” for “1, 2 and 6”, “34” for “9”, “for” for “for 1 week or”
# The survival rate after correction for water for each peptide among the stored samples was calculated in the same manner as Example 4, and the results are shown in Table 7-2.
SMILES,"survival rate after correction for water, 60° C., 1-week storage [%]","survival rate after correction for water, 60° C., 2-week storage [%]","stability in aqueous solution, in words"
CC[C@H](C)[C@H](NC(=O)CNC(=O)[C@H](Cc1nnn[nH]1)NC(=O)[C@H](CO)NC(=O)[C@@H](N)Cc1c[nH]cn1)C(=O)N[C@@H](Cc1ccccc1)C(=O)N[C@H](C(=O)N[C@@H](Cc1nnn[nH]1)C(=O)N[C@@H](CO)C(=O)N[C@@H](Cc1ccc(O)cc1)C(=O)N[C@@H](CO)C(=O)N[C@@H](CCCNC(=N)N)C(=O)N[C@@H](Cc1ccc(O)cc1)C(=O)N[C@@H](CCCNC(=N)N)C(=O)N[C@@H](CCCCN)C(=O)N[C@@H](CCC(N)=O)C(=O)N[C@@H](CC(C)C)C(=O)N[C@@H](C)C(=O)N[C@H](C(=O)N[C@@H](CCCCN)C(=O)N[C@@H](CCCCN)C(=O)N[C@@H](Cc1ccc(O)cc1)C(=O)N[C@@H](CC(C)C)C(=O)N[C@@H](C)C(=O)N[C@@H](C)C(=O)N[C@H](C(=O)N[C@@H](CC(C)C)C(N)=O)C(C)C)C(C)C)[C@@H](C)O [Peptide 7] (H-HS[Ala(1H-tetrazol-5-yl)]GIFT[Ala(1H-tetrazol-5-yl)]SYSRYRKQLAVKKYLAAVL-NH2),91.7,84.8,drastically increased stability
CC[C@H](C)[C@H](NC(=O)CNC(=O)[C@H](Cc1nnn[nH]1)NC(=O)[C@H](CO)NC(=O)[C@H](Cc1c[nH]cn1)NC(C)=O)C(=O)N[C@@H](Cc1ccccc1)C(=O)N[C@H](C(=O)N[C@@H](Cc1nnn[nH]1)C(=O)N[C@@H](CO)C(=O)N[C@@H](Cc1ccc(O)cc1)C(=O)N[C@@H](CO)C(=O)N[C@@H](CCCNC(=N)N)C(=O)N[C@@H](Cc1ccc(O)cc1)C(=O)N[C@@H](CCCNC(=N)N)C(=O)N[C@@H](CCCNC(=N)N)C(=O)N[C@@H](CCC(N)=O)C(=O)N[C@@H](CC(C)C)C(=O)N[C@@H](C)C(=O)N[C@H](C(=O)N[C@@H](CCCNC(=N)N)C(=O)N[C@@H](CCCNC(=N)N)C(=O)N[C@@H](Cc1ccc(O)cc1)C(=O)N[C@@H](CC(C)C)C(=O)N[C@@H](C)C(=O)N[C@@H](C)C(=O)N[C@H](C(=O)N[C@@H](CC(C)C)C(N)=O)C(C)C)C(C)C)[C@@H](C)O [Peptide 21] (Ac-HS[Ala(1H-tetrazol-5-yl)]GIFT[Ala(1H-tetrazol-5-yl)]SYSRYRRQLAVRRYLAAVL-NH2),97.8,93.5,
CC[C@H](C)[C@H](NC(=O)CNC(=O)[C@H](Cc1nnn[nH]1)NC(=O)[C@H](CO)NC(=O)[C@H](Cc1c[nH]cn1)NC(C)=O)C(=O)N[C@@H](Cc1ccccc1)C(=O)N[C@H](C(=O)N[C@@H](Cc1nnn[nH]1)C(=O)N[C@@H](CO)C(=O)N[C@@H](Cc1ccc(O)cc1)C(=O)N[C@@H](CO)C(=O)N[C@@H](CCCNC(=N)N)C(=O)N[C@@H](Cc1ccc(O)cc1)C(=O)N[C@@H](CCCNC(=N)N)C(=O)N[C@@H](CCCCN)C(=O)N[C@@H](C)C(=O)N[C@@H](CC(C)C)C(=O)N[C@@H](C)C(=O)N[C@H](C(=O)N[C@@H](CCCCN)C(=O)N[C@@H](CCCCN)C(=O)N[C@@H](Cc1ccc(O)cc1)C(=O)N[C@@H](CC(C)C)C(=O)N[C@@H](C)C(=O)N[C@@H](C)C(=O)N[C@H](C(=O)N[C@@H](CC(C)C)C(N)=O)C(C)C)C(C)C)[C@@H](C)O [Peptide 17] (Ac-HS[Ala(1H-tetrazol-5-yl)]GIFT[Ala(1H-tetrazol-5-yl)]SYSRYRKALAVKKYLAAVL-NH2),97.8,93.4,
